According to ChEMBL document CHEMBL1154502, “Small, non-peptide C5a receptor antagonists: part 2” (Bioorg Med Chem Lett, 2008):

Legend:
[1] = target: T1, C5a anaphylatoxin chemotactic receptor 1 (Homo sapiens, UniProt P21730); experiment: Displacement of [125I]C5a from C5a receptor in cAMP differentiated human U937 cells by filtration assay; format: cell-based, U-937
T1 sequence (P21730 whole entry): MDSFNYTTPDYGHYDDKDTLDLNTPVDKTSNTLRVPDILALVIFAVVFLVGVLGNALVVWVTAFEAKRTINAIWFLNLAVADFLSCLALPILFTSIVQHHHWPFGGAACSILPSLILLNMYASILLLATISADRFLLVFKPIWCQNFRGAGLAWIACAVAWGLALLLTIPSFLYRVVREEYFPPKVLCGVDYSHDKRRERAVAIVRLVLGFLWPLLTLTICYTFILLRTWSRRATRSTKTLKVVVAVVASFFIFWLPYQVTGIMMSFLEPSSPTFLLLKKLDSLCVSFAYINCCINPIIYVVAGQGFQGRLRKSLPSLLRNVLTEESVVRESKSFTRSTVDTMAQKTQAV

[2] = target: T1, C5a anaphylatoxin chemotactic receptor 1; experiment: Antagonist activity at C5a receptor assessed as inhibition of C5a-induced elastase release in human neutrophils during degranulation preincubated 5 mins prior to C5a challenge using p-nitroanilide as substrate; format: functional
[3] = target: T2, C5a anaphylatoxin chemotactic receptor 1 (Homo sapiens) (UniProt P21730); experiment: Antagonist activity at C5a receptor assessed as free drug level required to induce 10-fold shift in C5a-stimulated CD11b upregulation in heparinised human whole blood preincubated 1 min prior to C5a challenge by dose-response curve analysis; format: functional, tissue-based
T2 sequence (whole entry): T1 sequence (P21730 whole entry)

[4] = target: T2, C5a anaphylatoxin chemotactic receptor 1 (Homo sapiens); experiment: Binding affinity to C5a receptor assessed as free drug level required for translation of C5a-induced CD11b upregulation in heparinised human whole blood preincubated 1 min prior to C5a challenge by dose-response curve analysis; format: tissue-based
[5] = target: T2, C5a anaphylatoxin chemotactic receptor 1 (Homo sapiens); experiment: Antagonist activity at C5a receptor assessed as total drug level required to induce 10-fold shift in C5a-stimulated CD11b upregulation in heparinised human whole blood preincubated 1 min prior to C5a challenge by dose-response curve analysis; format: functional, tissue-based
[6] = target: T2, C5a anaphylatoxin chemotactic receptor 1 (Homo sapiens); experiment: Binding affinity to C5a receptor assessed as total drug level required for translation of C5a-induced CD11b upregulation in heparinised human whole blood preincubated 1 min prior to C5a challenge by dose-response curve analysis; format: tissue-based
[7] = Protein binding in human plasma; format: ADME, cell-free; settings: read-out: PPB (converted)
[8] = Octanol-neutral buffer distribution coefficient, log D at pH 7.4; format: physicochemical
[9] = Dissociation constant, pKa of the compound; format: physicochemical
[10] = Lipophilicity, log D of the compound; format: physicochemical; settings: octanol/water

Row | Structure (SMILES) | IC50 [1] [nM] | IC50 [2] [nM] | logD [8] | other results
1 | Clc1ccc(CC2CN=C(c3csc4ccccc34)N2C2CCC3(CC2)OCCO3)cc1 (centres undefined) | > 1000 |  |  | 
2 | COCC(Cc1ccc(Cl)cc1)N(C(=O)c1csc2ccccc12)C1CCC2(CC1)OCCO2 (racemic) | 12 | 27 |  | 
3 | CCc1ccccc1C(=O)N(C1CCC2(CC1)OCCO2)[C@H](CCN1CCOCC1)Cc1ccc(Cl)cc1 | 200 |  | 3.4 | Activity [3]: 119 nM; Activity [4]: 0.6 nM; Activity [5]: 4.4 µM; Activity [6]: 22 nM; fraction unbound [7]: 0.027
4 | CCc1ccccc1C(=O)N(C1CCC2(CC1)OCCO2)[C@H](CCN(C)C)Cc1ccc(Cl)cc1 | > 1000 |  |  | 
5 | Clc1ccc(Cc2cnc(-c3csc4ccccc34)n2C2CCC3(CC2)OCCO3)cc1 | 500 |  | > 4 | 
6 | CCc1ccccc1C(=O)N(C1CCC2(CC1)OCCO2)C(Cc1ccc(Cl)cc1)CN(C)C (racemic) | 27 | 25 | > 5 | Activity [3]: 17 nM; Activity [4]: 0.63 nM; Activity [5]: 4.8 µM; pKa [9]: 7.4; Activity [6]: 178 nM; fraction unbound [7]: 0.004
7 | CCc1ccccc1C(=O)N(C1CCC2(CC1)OCCO2)C(Cc1ccc(Cl)cc1)C(=O)O (racemic) | 350 |  |  | 
8 | CCOC(=O)C(Cc1ccc(Cl)cc1)N(C(=O)c1cccc2ccccc12)C1CCC2(CC1)OCCO2 (racemic) | 3 | 32 |  | 
9 | CN(C)CC(Cc1ccc(Cl)cc1)N(C(=O)c1cccc2ccccc12)C1CCC2(CC1)OCCO2 (racemic) | 13 | 22 | 4.6 | 
10 | CC(=O)C(Cc1ccc(Cl)cc1)N(C(=O)c1csc2ccccc12)C1CCC2(CC1)OCCO2 (racemic) | 45 |  |  | 
11 | Clc1ccc(Cc2cnc(-c3cccc4ccccc34)n2C2CCC3(CC2)OCCO3)cc1 | 90 | 877 |  | 
12 | CCc1ccccc1C(=O)N(C1CCC2(CC1)OCCO2)C(Cc1ccc(Cl)cc1)c1noc(C)n1 (racemic) | 8 | 40 | > 5 | 
13 | O=C(Nc1ccc(F)cc1F)N1CCC(N(CCc2ccc(Cl)cc2)C(=O)c2csc3ccccc23)CC1 |  |  |  | logD [10]: < 4
14 | Clc1ccc(Cc2nnc(-c3cccc4ccccc34)n2C2CCC3(CC2)OCCO3)cc1 | > 1000 |  |  | 
15 | Clc1cccc2nc(-c3csc4ccccc34)n(C3CCC4(CC3)OCCO4)c12 | 325 |  |  | 
16 | COc1cccc(-c2ncc(Cc3ccc(Cl)cc3)n2C2CCC3(CC2)OCCO3)c1 | > 1000 |  | 4 | 
17 | COC(=O)C(Cc1ccc(Cl)cc1)N(C(=O)c1csc2ccccc12)C1CCC2(CC1)OCCO2 (racemic) | 15 | 172 |  | 
18 | CN(C)Cc1ccccc1C(=O)N(CCc1ccc(Cl)cc1)C1CCC2(CC1)OCCO2 | 500 |  | 3.3 | Activity [3]: > 40 nM; Activity [5]: > 10 µM; pKa [9]: 8.4; fraction unbound [7]: 0.004
19 | Cc1nc(-c2csc3ccccc23)n(C2CCC3(CC2)OCCO3)c1Cc1ccc(Cl)cc1 | 90 |  | 4.6 | 
20 | O=C(c1csc2ccccc12)N(C1CCC2(CC1)OCCO2)C(CO)Cc1ccc(Cl)cc1 (racemic) | > 1000 |  |  | 
21 | c1ccc2c(-c3ncc(CC4CCCCC4)n3C3CCC4(CC3)OCCO4)csc2c1 | 47 | 850 |  | 
22 | Clc1ccc2nc(-c3csc4ccccc34)n(C3CCC4(CC3)OCCO4)c2c1Cl | 790 |  | > 5 | 
